Patent US20100092465A1, “TREATMENT OF GRAFT-VERSUS-HOST DISEASE” (priority 2006, published 2010)

Experiments:
[1] = system: serum IgG1, IgG2a, IgE and cytokines; experiment: Serum immunoglobulin and cytokine levels in acute GVHD model; type: in vivo, mouse; conditions: serum level
Protocol: Efficacy of IL-27 antagonists was assayed in a mouse model of acute graft-vs-host disease (Durie et al., J. Clin. Invest. 94:1333-1338, 1994). Parental mice (C57BL/6; n=12) were euthanized, and their spleens were collected. The pooled spleens were smashed using two glass slides to dissociate splenic cells. Lysis buffer was added to the splenocyte suspension to remove red blood cells. The cells were washed in RPMI 1640 (10% FBS) medium and resuspended in an appropriate amount of PBS to make a cell concentration of 300 million cells/ml. Protein treatments were administered by intraperitoneal injection every other day beginning on day-1 and continuing until day 15. Dexamethasone (DEX) was administered by injection daily on days 0 through 6. On day 0, 75 million donor splenic lymphocytes from B6 mice (250 .micro.l per injection) were injected intravenously into recipient mice (C57BL/6×DBA/2 F1 (BDF1); n=10 per group) mice. Mice were monitored 3 times a week for changes in body weight and any signs of moribundity. Mice that lost >20% of their initial body weight were euthanized. Otherwise, mice were sacrificed 18 days after the cell transfer. Spleens were collected, and a CTL-specific lysis assay using P815 cells was performed as a quantitative measurement of acute GVHD. Furthermore, spleens were stained for T- and B-cell markers, including MHC class I markers (H2^b and H2^d) to look at donor/recipient cell ratio (acute GVHD spleen cells are mostly donor cells). Sera were collected to measure serum level of IgG1, IgG2a, and IgE by ELISA, and cytokine and chemokine levels using a commercially available kit (Luminex Corporation, Austin, Tex.).

[2] = target: T1, mouse ligand (single-chain IL27) (Mus musculus, UniProt O35228+Q8K3I6); experiment: SPR kinetics of soluble receptors with mouse IL27 ligand; conditions: binding with mouse ligand; gp130 not included
T1 construct: amino-terminal peptide tag (FLAG in lot A1426F) (N)
T1 sequence (O35228+Q8K3I6 with tags, fused parts or gaps): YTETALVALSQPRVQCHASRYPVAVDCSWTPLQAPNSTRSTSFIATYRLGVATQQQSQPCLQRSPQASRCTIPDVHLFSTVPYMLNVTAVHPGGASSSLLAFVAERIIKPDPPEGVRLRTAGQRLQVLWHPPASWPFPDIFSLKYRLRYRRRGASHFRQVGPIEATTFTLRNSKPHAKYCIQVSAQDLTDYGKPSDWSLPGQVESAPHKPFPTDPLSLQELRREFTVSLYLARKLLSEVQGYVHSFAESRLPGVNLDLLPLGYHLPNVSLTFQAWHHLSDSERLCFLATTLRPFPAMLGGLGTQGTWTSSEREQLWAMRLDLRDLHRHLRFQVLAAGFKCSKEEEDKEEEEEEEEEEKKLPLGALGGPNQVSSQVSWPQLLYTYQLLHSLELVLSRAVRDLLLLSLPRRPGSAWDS
Protocol: Kinetic rate and affinity constant values for the mouse (IL27RAm(mFc1), Example 3) and human (IL27RA-Fc5, Example 4) soluble receptors were obtained by surface plasmon resonance (SPR) using an automated instrument (BIACORE 3000; Biacore International AB, Uppsala, Sweden). The mouse soluble receptor was tested against mouse ligand (lot A1418F), and the human soluble receptor was tested against both mouse (A1426F) and human (A1534F) ligands. For determination of the kinetic rate constants for the receptor-ligand interactions, the gp130 molecule was not included as part of the receptor complex.
The IL27 ligands used in this study were single-chain molecules comprising EBI3 connected by its C-terminus to the N-terminus of IL-27 p28 via a polypeptide linker. Each of the ligands included an amino-terminal peptide tag.
For the mouse IL27RA study, the soluble receptor was captured onto the chip surface by an isotype-specific anti-mouse Fc antibody (obtained from Jackson ImmunoResearch Laboratories, Inc., West Grove, Pa.) covalently immobilized to the chip (BIACORE CM5 chip) using the standard amine coupling protocol specified by the instrument manufacturer. […]
All data were assessed using software provided with the instrument (BIACORE Evaluation software v. 3.2). […]

ka [2]: 8.1e+06 M⁻¹ s⁻¹
kd [2]: 0.0018 s⁻¹
Substance: human IL-27RA-Fc5: human IL27RA extracellular domain (amino acids 1 to 512 of SEQ ID NO:5) fused to Fc5, effector minus human gamma1 Fc; SEQ ID NO:3
IL-2 [1]: ↑↑↑
IL-5 [1]: ↑↑
IL-6 [1]: ↓↓↓
IgE [1]: ↑
IgG1 [1]: ↑↑
IgG2A [1]: ↑↑
